Laboratory results from US8822449B2, “Substituted aminoindanes and analogs thereof, and the pharmaceutical use thereof” (Sanofi, priority 2008, dated 2014).

molecular target: T1, sodium-proton exchanger of subtype 3 (NHE3) (Homo sapiens, UniProt P48764); experiment: Recovery of intracellular pH (pHi) after acidification in LAP1 cells stably expressing NHE3 (BCECF fluorescence, FLIPR); format: cell-based; conditions: LAP1 cells stably expressing NHE3; pH recovery after acidification; range 1 is % inhibition at 10 μM; read-out: Activity range (inhibitory effect on NHE3)
T1 construct: expressed in transfected cells
T1 sequence (P48764 26-834): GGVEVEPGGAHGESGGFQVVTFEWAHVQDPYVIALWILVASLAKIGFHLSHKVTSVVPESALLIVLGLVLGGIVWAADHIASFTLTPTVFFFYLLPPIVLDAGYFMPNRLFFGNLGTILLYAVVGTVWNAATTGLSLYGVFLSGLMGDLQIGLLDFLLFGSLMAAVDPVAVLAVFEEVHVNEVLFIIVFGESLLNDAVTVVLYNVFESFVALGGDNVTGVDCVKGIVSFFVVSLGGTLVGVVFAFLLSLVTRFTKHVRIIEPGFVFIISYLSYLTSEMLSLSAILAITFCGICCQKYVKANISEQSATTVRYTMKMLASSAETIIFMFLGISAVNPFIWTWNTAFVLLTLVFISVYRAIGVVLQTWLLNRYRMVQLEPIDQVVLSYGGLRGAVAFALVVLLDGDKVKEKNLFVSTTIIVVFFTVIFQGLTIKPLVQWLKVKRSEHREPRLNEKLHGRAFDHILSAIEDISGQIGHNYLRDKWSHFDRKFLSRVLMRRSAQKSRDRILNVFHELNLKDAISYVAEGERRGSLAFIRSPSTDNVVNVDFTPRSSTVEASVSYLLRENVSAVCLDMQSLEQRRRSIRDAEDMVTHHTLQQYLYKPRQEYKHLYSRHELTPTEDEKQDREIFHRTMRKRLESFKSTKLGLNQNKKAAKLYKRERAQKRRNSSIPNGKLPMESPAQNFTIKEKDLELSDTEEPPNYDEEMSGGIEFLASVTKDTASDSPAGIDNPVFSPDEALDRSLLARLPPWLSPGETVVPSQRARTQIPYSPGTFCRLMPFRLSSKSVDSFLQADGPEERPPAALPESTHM

`N[C@@H]1CCCN([C@H]2Cc3c(Cl)cc(Cl)cc3[C@@H]2Oc2ccc(-n3cncn3)cc2)C1` [Example 97, (R)-1-[trans-(1S,2S)-4,6-dichloro-1-(4-[1,2,4]triazol-1-ylphenoxy)indan-2-yl]piperidin-3-ylamine] and `Cc1nnc(C)n1-c1ccc(O[C@H]2c3cc(Cl)cc(Cl)c3C[C@@H]2N2CC[C@H](N)C2)cc1` [Example 207, (S)-1-{trans-(1S,2S)-4,6-dichloro-1-[4-(3,5-dimethyl-[1,2,4]triazol-4-yl)phenoxy]indan-2-yl}pyrrolidin-3-ylamine] cannot be ordered by IC50: under 1 µM for the first, under 1 µM for the second.

Compared with `Cc1nn(C)c(C)c1-c1ccc(O[C@H]2c3cc(Cl)cc(Cl)c3C[C@@H]2N2CC[C@@H](O)C2)cc1` [Example 124, (R)-1-{trans-(1S,2S)-4,6-dichloro-1-[4-(1,3,5-trimethyl-1H-pyrazol-4-yl)phenoxy]indan-2-yl}pyrrolidin-3-ol], `CCc1nnc(C(C)C)n1-c1ccc(O[C@H]2c3cc(Cl)cc(Cl)c3C[C@@H]2N2CC[C@@H](O)C2)cc1` [Example 716, (R)-1-{trans-(1S,2S)-4,6-Dichloro-1-[4-(3-ethyl-5-isopropyl-[1,2,4]triazol-4-yl)-phenoxy]-indan-2-yl}-pyrrolidin-3-ol] is lower in IC50: 1 to 10 µM for the first, under 1 µM for the second. The second is the more potent here.

`CS(=O)(=O)c1ccc(O[C@H]2c3ccccc3CC[C@@H]2N2CCC[C@H](N)C2)cc1` (racemic) [Example 182, (S)-1-[rac-trans-(1,2)-1-(4-methanesulfonylphenoxy)-1,2,3,4-tetrahydronaphthalen-2-yl]piperidin-3-ylamine] and `COCCc1ccc(O[C@@H]2c3ccccc3C[C@H]2N2CCC[C@@H](N)C2)cc1` (racemic) [Example 116, (R)-1-{rac-trans-(1,2)-1-[4-(2-methoxyethyl)phenoxy]indan-2-yl}piperidin-3-ylamine] fall in the same range of IC50: 1 to 10 µM for the first, 1 to 10 µM for the second.

`CN1CCN(c2cccc(O[C@H]3c4cc(Cl)cc(Cl)c4C[C@@H]3N3CC[C@@H](O)C3)c2)C1=O` [Example 319, 1-{3-[trans-(1S,2S)-4,6-dichloro-2-((R)-3-hydroxypyrrolidin-1-yl)indan-1-yloxy]phenyl}-3-methylimidazolidin-2-one] and `CN1CCN(S(=O)(=O)c2ccc(O[C@H]3c4cc(Cl)cc(Cl)c4C[C@@H]3N3CC[C@@H](O)C3)cc2)CC1` [Example 742, (R)-1-{trans-(1S,2S)-4,6-Dichloro-1-[4-(4-methyl-piperazine-1-sulfonyl)-phenoxy]-indan-2-yl}-pyrrolidin-3-ol] fall in the same range of IC50: 1 to 10 µM for the first, 1 to 10 µM for the second.

Compared with `N#Cc1ccc(O[C@H]2c3cc(Cl)cc(Cl)c3C[C@@H]2N2CC[C@@H](O)C2)c(F)c1` [Example 554, 4-[trans-(1S,2S)-4,6-dichloro-2-((R)-3-hydroxypyrrolidin-1-yl)indan-1-yloxy]-3-fluorobenzonitrile], `O=C1COC(=O)N1c1ccc(O[C@H]2c3cc(Cl)cc(Cl)c3C[C@@H]2N2CC[C@@H](O)C2)c(Cl)c1` [Example 424, 3-{3-chloro-4-[(1S,2S)-4,6-dichloro-2-((R)-3-hydroxypyrrolidin-1-yl)indan-1-yloxy]phenyl}oxazolidine-2,4-dione] is lower in IC50: 1 to 10 µM for the first, under 1 µM for the second.

`N#Cc1ccc(O[C@@H]2c3ccccc3C[C@H]2N2CCC[C@@H](N)C2)c(Cl)c1` (racemic) [Example 523, 4-[rac-trans-(1,2)-2-((R)-3-aminopiperidin-1-yl)indan-1-yloxy]-3-chlorobenzonitrile] and `N[C@@H]1CCCN([C@@H]2Cc3ccccc3[C@H]2Oc2cccc3[nH]ccc23)C1` (racemic) [Example 30, (R)-1-[rac-trans-(1,2)-1-(1H-indol-4-yloxy)indan-2-yl]piperidin-3-ylamine] fall in the same range of IC50: 1 to 10 µM for the first, 1 to 10 µM for the second.

First: NC(=O)c1cc(Cl)ccc1O[C@H]1c2ccccc2CC[C@@H]1N1CCC[C@H](N)C1 (racemic) [Example 370, 2-[rac-trans-(1,2)-2-((S)-3-aminopiperidin-1-yl)-1,2,3,4-tetrahydronaphthalen-1-yloxy]-5-chlorobenzamide]
Second: CN(C)Cc1cccc(O[C@@H]2c3ccccc3C[C@H]2N2CCC[C@H](N)C2)c1 (racemic) [Example 167, (S)-1-[rac-trans-(1,2)-1-(3-dimethylaminomethylphenoxy)indan-2-yl]piperidin-3-ylamine]
The IC50 of the first is lower: under 1 µM for the first, 1 to 10 µM for the second. The first is the more potent here.

Compared with `O=c1ocnn1-c1ccc(O[C@H]2c3cc(Cl)cc(Cl)c3C[C@@H]2N2CC[C@@H](O)C2)cc1` [Example 735, 3-{4-[trans-(1S,2S)-4,6-Dichloro-2-((R)-3-hydroxy-pyrrolidin-1-yl)-indan-1-yloxy]-phenyl}-3H-[1,3,4]oxadiazol-2-one], `CS(=O)(=O)c1ccc(O[C@H]2c3cc(Cl)cc(Cl)c3C[C@@H]2N2CC[C@@H](F)C2)cc1` [Example 100, (R)-1-[trans-(1S,2S)-4,6-dichloro-1-(4-methanesulfonylphenoxy)indan-2-yl]-3-fluoropyrrolidine] is lower in IC50: 1 to 10 µM for the first, under 1 µM for the second.

`c1ccc2c(c1)C[C@@H](N1C[C@H]3CNC[C@H]3C1)[C@@H]2Oc1ccc2ccncc2c1` (racemic) [Example 589, 7-[rac-trans-(1,2)-2-(Hexahydropyrrolo[3,4-c]pyrrol-2-yl)indan-1-yloxy]isoquinoline] and `Brc1ccc(O[C@@H]2c3ccccc3C[C@H]2N2C[C@H]3CNC[C@H]3C2)c(-c2cc[nH]n2)c1` (racemic) [Example 20, 2-{rac-trans-(1,2)-1-[4-bromo-2-(1H-pyrazol-3-yl)phenoxy]indan-2-yl}octahydropyrrolo[3,4-c]pyrrole] fall in the same range of IC50: 1 to 10 µM for the first, 1 to 10 µM for the second.

Compared with `N[C@H]1CCCN([C@@H]2Cc3ccccc3[C@H]2Oc2ccc(N3CCNCC3)cc2)C1` (racemic) [Example 185, (S)-1-[rac-trans-(1,2)-1-(4-piperazin-1-ylphenoxy)indan-2-yl]piperidin-3-ylamine], `CN(C)[C@@H]1CCCN([C@H]2Cc3c(Cl)cc(Cl)cc3[C@@H]2Oc2ccc(S(C)(=O)=O)cc2)C1` [Example 224, {(R)-1-[trans-(1S,2S)-4,6-dichloro-1-(4-methanesulfonylphenoxy)indan-2-yl]piperidin-3-yl}-dimethylamine] is lower in IC50: 1 to 10 µM for the first, under 1 µM for the second.

First: CC(=O)Nc1cccc(O[C@H]2c3cc(Cl)cc(Cl)c3C[C@@H]2N2CCC[C@@H](N(C)C)C2)c1 [Example 694, N-{3-[trans-(1S,2S)-4,6-dichloro-2-((R)-3-dimethylaminopiperidin-1-yl)indan-1-yloxy]phenyl}acetamide]
Second: CS(=O)(=O)c1ccc(O[C@H]2c3cc(Cl)cc(Cl)c3C[C@@H]2N2CC(O)C2)cc1 [Example 307, 1-[trans-(1S,2S)-4,6-dichloro-1-(4-methanesulfonylphenoxy)indan-2-yl]azetidin-3-ol]
The IC50 of the first is lower: under 1 µM for the first, 1 to 10 µM for the second.

`CS(=O)(=O)c1ccc(O[C@H]2c3cc(Cl)cc(Cl)c3C[C@@H]2N2CCC(F)(F)CC2)cc1` [Example 250, 1-[(1S,2S)-4,6-dichloro-1-(4-methanesulfonylphenoxy)indan-2-yl]-4,4-difluoropiperidine] and `Cn1ccn(-c2cc(O[C@H]3c4cc(Cl)cc(Cl)c4C[C@@H]3N3CC[C@@H](O)C3)ccc2Cl)c1=O` [Example 310, 1-{2-chloro-5-[(1S,2S)-4,6-dichloro-2-((R)-3-hydroxypyrrolidin-1-yl)indan-1-yloxy]phenyl}-3-methyl-1,3-dihydroimidazol-2-one] fall in the same range of inhibition at 10 µM: 20 to 50% for the first, 20 to 50% for the second.

`Fc1ccc(O[C@H]2c3ccccc3CC[C@@H]2N2CCOCC2)c(-c2ccno2)c1` (racemic) [Example 507, 4-[rac-trans-(1,2)-1-(4-fluoro-2-isoxazol-5-ylphenoxy)-1,2,3,4-tetrahydronaphthalen-2-yl]morpholine] and `N[C@@H]1CCCN([C@H]2CCc3ccccc3[C@@H]2Oc2ccc(F)c(Cl)c2)C1` (racemic) [Example 52, (R)-1-[rac-trans-(1,2)-1-(3-chloro-4-fluorophenoxy)-1,2,3,4-tetrahydronaphthalen-2-yl]piperidin-3-ylamine] fall in the same range of inhibition at 10 µM: 20 to 50% for the first, 20 to 50% for the second.

`COc1cccc(CC#N)c1O[C@H]1c2ccccc2CC[C@@H]1N1CCC[C@@H](N)C1` (racemic) [Example 229, {2-[rac-trans-(1,2)-2-((R)-3-aminopiperidin-1-yl)-1,2,3,4-tetrahydronaphthalen-1-yloxy]-3-methoxyphenyl}acetonitrile] and `Cc1cccc(Cl)c1O[C@H]1c2ccccc2CC[C@@H]1N1CCC[C@@H](N)C1` (racemic) [Example 39, (R)-1-[rac-trans-(1,2)-1-(2-chloro-6-methylphenoxy)-1,2,3,4-tetrahydronaphthalen-2-yl]piperidin-3-ylamine] fall in the same range of inhibition at 10 µM: 20 to 50% for the first, 20 to 50% for the second.

Molecule `N[C@H]1CCCN([C@H]2CCc3ccccc3[C@@H]2Oc2ccc3cc[nH]c3c2)C1` (racemic) [Example 148, (S)-1-[rac-trans-(1,2)-1-(1H-indol-6-yloxy)-1,2,3,4-tetrahydronaphthalen-2-yl]piperidin-3-ylamine] has an inhibition at 10 µM of 20 to 50%.
